These are literature values, as cited in US9060510B2 (priority 2005, dated 2015).

Read-outs that look alike come from different tables or passages of the source.

Take `CCN(Cc1ccc(Cl)nc1)/C(=C/[N+](=O)[O-])NC` [Nitempyram, (E)-N-(6-chloro-3-pyridylmethyl)-N-ethyl-N′-methyl-2-nitrovinylidenediamine]: the water-solubility (at pH 7.0, 20° C.) was over 590 mg/mL.

“(E)-1-(2-chloro-1,3-thiazol-5-yl)-3-methyl-2-nitroguanidine [Clothianidin]”: the water-solubility (at pH 4.0, 20° C.) is 0.304 mg/mL.
